Series [1] can be described thus: Blood:plasma distribution ratio. Type of series: in vitro ADME. Conditions: blood and plasma.
Another series can be described thus: Solubility in water. The series is classed as physicochemical.

Where two headings read alike, the source gives them in different places.

`C[C@H]1CN(C[C@H](Cc2ccccc2)C(=O)NCC(=O)O)CC[C@@]1(C)c1cccc(O)c1` [Alvimopan, [[2(S)-[[4(R)-(3-hydroxyphenyl)-3(R),4-dimethyl-1-piperidinyl]methyl]-1-oxo-3-phenylpropyl]amino]acetic acid dihydrate]: in series [1], the blood plasma ratio was determined as 0.68. Further, the Solubility in water entry is given as “extremely low solubility in water” in the series “Solubility in water” (dihydrate) and “low solubility in water except at low or high pH conditions” in the series “Solubility in water” (listed as compound of formula (II), dihydrate).

Regarding `C[C@H]1CN(C[C@H](Cc2ccccc2)C(=O)O)CC[C@@]1(C)c1cccc(O)c1.O` [active metabolite, (αS,3R,4R)-4-(3-hydroxyphenyl)-3,4-dimethyl-α-(phenylmethyl)-1-piperidinepropanoic acid monohydrate], the Solubility in water entry in the series “Solubility in water” is on record as “extremely low solubility in water”.

For the origin of these results see patent US8598207B2, “Compositions containing opioid antagonists” (Adolor Corporation, priority 2004, dated 2013).
